From ChEMBL document CHEMBL5661979, “Pharmacological inhibition of BMK1 suppresses tumor growth through promyelocytic leukemia protein” (Cancer Cell, 2010)

Legend:
[1] = target: Ribosomal protein S6 kinase alpha-1 (Homo sapiens, UniProt Q15418); test: Inhibition of RSK1 domain 2 in human HeLa cells lysate pre incubated for 15 mins followed by ATP acyl phosphate probe addition and measured after 10 mins by LC-MS/MS analysis; format: subcellular
[2] = target: Dual specificity mitogen-activated protein kinase kinase 7 (Homo sapiens, UniProt O14733); test: Inhibition of MAP2K7 in human HeLa cells lysate pre incubated for 15 mins followed by ADP acyl phosphate probe addition and measured after 10 mins by LC-MS/MS analysis; format: subcellular
[3] = target: T1, Mitogen-activated protein kinase kinase kinase kinase 2 (Homo sapiens) (UniProt Q12851); test: Inhibition of GCK in human HeLa cells lysate at 10 uM pre incubated for 15 mins followed by ADP acyl phosphate probe addition and measured after 10 mins by LC-MS/MS analysis relative to control; format: subcellular; settings: time 25.0 min
T1 sequence (whole entry): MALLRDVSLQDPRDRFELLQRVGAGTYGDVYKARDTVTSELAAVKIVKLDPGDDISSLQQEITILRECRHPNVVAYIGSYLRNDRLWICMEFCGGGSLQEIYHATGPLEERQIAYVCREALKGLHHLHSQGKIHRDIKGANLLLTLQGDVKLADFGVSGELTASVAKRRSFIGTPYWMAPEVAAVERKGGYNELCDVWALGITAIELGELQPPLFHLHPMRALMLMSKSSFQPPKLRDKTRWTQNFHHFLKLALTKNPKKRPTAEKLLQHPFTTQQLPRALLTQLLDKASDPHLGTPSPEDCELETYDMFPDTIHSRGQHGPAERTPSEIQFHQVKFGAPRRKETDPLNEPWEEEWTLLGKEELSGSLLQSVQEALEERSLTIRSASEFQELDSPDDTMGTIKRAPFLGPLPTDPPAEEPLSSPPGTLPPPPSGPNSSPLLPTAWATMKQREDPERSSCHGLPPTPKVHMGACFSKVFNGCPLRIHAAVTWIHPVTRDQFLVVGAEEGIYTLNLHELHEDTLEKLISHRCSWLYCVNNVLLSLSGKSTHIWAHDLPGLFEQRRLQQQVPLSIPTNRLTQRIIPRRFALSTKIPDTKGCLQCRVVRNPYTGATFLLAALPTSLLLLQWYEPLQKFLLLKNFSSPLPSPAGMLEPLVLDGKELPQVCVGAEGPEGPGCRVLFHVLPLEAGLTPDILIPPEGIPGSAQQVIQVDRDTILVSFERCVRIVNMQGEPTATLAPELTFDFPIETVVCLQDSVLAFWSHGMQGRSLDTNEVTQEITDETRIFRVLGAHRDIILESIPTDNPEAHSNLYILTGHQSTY

[4] = target: Macrophage-stimulating protein receptor (Homo sapiens, UniProt Q04912); test: Inhibition of RON in human HeLa cells lysate at 10 uM pre incubated for 15 mins followed by ADP acyl phosphate probe addition and measured after 10 mins by LC-MS/MS analysis relative to control; format: subcellular; settings: time 25.0 min
[5] = target: Phosphatidylinositol 4-kinase beta (Homo sapiens, UniProt Q9UBF8); test: Inhibition of PIK4CB in human HeLa cells lysate at 10 uM pre incubated for 15 mins followed by ADP acyl phosphate probe addition and measured after 10 mins by LC-MS/MS analysis relative to control; format: subcellular; settings: time 25.0 min
[6] = target: T2, Phosphatidylinositol 5-phosphate 4-kinase type-2 alpha (Homo sapiens) (UniProt P48426); test: Inhibition of PIP5K2A LIP1 site in human HeLa cells lysate at 2 uM pre incubated for 15 mins followed by ADP acyl phosphate probe addition and measured after 10 mins by LC-MS/MS analysis relative to control; format: subcellular; settings: time 25.0 min
T2 sequence (whole entry): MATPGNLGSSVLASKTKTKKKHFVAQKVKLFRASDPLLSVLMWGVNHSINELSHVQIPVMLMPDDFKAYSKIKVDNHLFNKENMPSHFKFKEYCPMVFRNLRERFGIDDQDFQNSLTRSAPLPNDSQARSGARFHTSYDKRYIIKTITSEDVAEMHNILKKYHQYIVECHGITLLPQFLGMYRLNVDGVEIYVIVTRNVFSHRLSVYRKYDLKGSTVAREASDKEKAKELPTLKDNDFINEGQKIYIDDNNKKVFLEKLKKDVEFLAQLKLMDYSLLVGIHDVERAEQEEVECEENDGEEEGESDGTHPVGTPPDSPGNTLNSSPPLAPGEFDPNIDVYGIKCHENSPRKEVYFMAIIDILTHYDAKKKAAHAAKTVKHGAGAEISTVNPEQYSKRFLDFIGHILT

[7] = target: Serine/threonine-protein kinase tousled-like 2 (Homo sapiens, UniProt Q86UE8); test: Inhibition of TLK2 in human HeLa cells lysate at 2 uM pre incubated for 15 mins followed by ADP acyl phosphate probe addition and measured after 10 mins by LC-MS/MS analysis relative to control; format: subcellular; settings: time 25.0 min
[8] = target: Serine/threonine-protein kinase 3/4 (Homo sapiens) (UniProt Q13043+Q13188); test: Inhibition of MST1/2 in human HeLa cells lysate at 2 uM pre incubated for 15 mins followed by ADP acyl phosphate probe addition and measured after 10 mins by LC-MS/MS analysis relative to control; format: subcellular; settings: time 25.0 min
[9] = target: Mitogen-activated protein kinase kinase kinase 20 (Homo sapiens, UniProt Q9NYL2); test: Inhibition of ZAK in human HeLa cells lysate at 50 uM pre incubated for 15 mins followed by ATP acyl phosphate probe addition and measured after 10 mins by LC-MS/MS analysis relative to control; format: subcellular; settings: time 25.0 min
[10] = target: T3, Phosphatidylinositol 5-phosphate 4-kinase type-2 gamma (Homo sapiens) (UniProt Q8TBX8); test: Inhibition of PIP5K2C LIP1 site in human HeLa cells lysate at 10 uM pre incubated for 15 mins followed by ATP acyl phosphate probe addition and measured after 10 mins by LC-MS/MS analysis relative to control; format: subcellular; settings: time 25.0 min
T3 sequence (whole entry): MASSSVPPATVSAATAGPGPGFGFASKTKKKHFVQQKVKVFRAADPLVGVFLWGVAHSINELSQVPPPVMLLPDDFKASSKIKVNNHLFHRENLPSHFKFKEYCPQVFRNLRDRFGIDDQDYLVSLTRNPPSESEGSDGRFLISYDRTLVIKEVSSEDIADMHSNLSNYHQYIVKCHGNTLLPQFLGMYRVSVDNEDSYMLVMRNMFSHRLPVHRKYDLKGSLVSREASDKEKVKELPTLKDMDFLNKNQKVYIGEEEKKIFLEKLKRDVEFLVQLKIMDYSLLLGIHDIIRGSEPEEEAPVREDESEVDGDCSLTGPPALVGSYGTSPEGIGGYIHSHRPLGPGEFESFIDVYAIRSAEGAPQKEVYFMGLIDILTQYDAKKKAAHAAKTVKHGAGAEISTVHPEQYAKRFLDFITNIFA

[11] = target: Dual specificity mitogen-activated protein kinase kinase 1 (Homo sapiens, UniProt Q02750); test: Inhibition of MAP2K1 in human HeLa cells lysate at 10 uM pre incubated for 15 mins followed by ATP acyl phosphate probe addition and measured after 10 mins by LC-MS/MS analysis relative to control; format: subcellular; settings: time 25.0 min
[12] = Toxicity in C57Bl/6 mouse assessed as effect on locomotor activity at 50 mg/kg, ip for 14 days; format: organism-based; settings: in vivo, 336 h, time 14 day
[13] = Toxicity in C57Bl/6 mouse assessed as effect on alanine aminotransferase level at 50 mg/kg, ip for 14 days (reference value: 35 U/L); format: organism-based; settings: in vivo, 336 h, time 14 day

Chain of Dual specificity mitogen-activated protein kinase kinase 7 (O14733 whole entry): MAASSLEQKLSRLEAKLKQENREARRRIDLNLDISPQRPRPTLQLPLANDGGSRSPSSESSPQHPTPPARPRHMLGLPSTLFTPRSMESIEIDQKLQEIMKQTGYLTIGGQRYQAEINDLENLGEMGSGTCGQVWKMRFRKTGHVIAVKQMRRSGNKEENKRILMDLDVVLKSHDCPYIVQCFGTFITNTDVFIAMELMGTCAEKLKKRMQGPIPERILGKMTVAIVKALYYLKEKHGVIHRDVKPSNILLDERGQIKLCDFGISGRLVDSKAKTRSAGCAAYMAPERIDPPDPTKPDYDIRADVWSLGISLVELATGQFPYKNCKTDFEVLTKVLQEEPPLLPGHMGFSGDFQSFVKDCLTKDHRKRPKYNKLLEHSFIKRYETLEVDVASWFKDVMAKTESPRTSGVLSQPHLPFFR
Chain of Macrophage-stimulating protein receptor (Q04912 25-304 limits assumed): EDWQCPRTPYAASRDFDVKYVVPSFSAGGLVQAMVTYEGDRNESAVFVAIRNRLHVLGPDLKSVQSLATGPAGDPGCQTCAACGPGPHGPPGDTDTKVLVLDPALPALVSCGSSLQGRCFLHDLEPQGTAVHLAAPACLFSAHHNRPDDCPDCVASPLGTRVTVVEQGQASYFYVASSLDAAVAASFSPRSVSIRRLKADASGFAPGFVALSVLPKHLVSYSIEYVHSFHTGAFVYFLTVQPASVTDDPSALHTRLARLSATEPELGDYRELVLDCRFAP
Chain of Macrophage-stimulating protein receptor (Q04912 310-1400 limits assumed): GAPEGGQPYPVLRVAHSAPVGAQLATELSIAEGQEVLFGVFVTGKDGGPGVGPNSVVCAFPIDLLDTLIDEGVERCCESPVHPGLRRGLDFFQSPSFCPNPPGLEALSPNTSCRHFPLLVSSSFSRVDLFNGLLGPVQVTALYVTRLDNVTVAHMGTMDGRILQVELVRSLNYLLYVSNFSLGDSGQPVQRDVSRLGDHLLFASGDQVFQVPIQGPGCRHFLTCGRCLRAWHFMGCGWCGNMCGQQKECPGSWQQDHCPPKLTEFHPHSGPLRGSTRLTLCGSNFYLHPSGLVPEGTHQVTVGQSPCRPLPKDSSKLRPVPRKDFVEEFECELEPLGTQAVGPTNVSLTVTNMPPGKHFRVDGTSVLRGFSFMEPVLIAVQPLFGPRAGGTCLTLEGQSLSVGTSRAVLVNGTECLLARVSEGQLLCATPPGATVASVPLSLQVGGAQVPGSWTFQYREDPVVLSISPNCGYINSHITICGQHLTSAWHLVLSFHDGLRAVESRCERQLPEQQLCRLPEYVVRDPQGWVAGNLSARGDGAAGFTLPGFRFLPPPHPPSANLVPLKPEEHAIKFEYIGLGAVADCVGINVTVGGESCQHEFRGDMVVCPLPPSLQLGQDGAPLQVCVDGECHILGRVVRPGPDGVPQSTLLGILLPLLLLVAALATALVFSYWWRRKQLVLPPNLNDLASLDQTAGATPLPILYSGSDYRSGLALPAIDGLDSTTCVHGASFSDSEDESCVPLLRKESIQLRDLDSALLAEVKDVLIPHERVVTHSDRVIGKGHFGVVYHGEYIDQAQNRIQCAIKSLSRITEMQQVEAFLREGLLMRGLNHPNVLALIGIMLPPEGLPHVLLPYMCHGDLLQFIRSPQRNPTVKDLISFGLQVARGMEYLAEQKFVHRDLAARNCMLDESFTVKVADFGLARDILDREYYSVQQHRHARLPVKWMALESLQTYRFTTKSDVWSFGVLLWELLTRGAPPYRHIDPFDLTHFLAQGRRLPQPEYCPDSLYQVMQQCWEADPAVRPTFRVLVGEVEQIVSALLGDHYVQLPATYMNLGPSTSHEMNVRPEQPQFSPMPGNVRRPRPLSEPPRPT
Chain of Serine/threonine-protein kinase 3/4 (Homo sapiens) (Q13043 whole entry, looked up): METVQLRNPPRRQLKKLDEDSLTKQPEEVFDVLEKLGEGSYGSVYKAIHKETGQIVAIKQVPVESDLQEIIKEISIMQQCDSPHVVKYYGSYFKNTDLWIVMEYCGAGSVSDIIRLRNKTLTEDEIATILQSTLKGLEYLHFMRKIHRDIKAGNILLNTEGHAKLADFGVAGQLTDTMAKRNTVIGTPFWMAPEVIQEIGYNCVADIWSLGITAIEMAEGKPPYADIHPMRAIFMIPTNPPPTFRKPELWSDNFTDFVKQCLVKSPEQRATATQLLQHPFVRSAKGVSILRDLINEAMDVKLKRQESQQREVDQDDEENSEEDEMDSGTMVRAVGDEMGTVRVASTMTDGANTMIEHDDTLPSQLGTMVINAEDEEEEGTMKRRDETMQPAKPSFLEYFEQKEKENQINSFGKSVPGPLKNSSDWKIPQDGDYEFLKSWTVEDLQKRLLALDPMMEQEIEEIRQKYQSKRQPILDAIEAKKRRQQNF
Chain of Serine/threonine-protein kinase 3/4 (Homo sapiens) (Q13188 whole entry, looked up): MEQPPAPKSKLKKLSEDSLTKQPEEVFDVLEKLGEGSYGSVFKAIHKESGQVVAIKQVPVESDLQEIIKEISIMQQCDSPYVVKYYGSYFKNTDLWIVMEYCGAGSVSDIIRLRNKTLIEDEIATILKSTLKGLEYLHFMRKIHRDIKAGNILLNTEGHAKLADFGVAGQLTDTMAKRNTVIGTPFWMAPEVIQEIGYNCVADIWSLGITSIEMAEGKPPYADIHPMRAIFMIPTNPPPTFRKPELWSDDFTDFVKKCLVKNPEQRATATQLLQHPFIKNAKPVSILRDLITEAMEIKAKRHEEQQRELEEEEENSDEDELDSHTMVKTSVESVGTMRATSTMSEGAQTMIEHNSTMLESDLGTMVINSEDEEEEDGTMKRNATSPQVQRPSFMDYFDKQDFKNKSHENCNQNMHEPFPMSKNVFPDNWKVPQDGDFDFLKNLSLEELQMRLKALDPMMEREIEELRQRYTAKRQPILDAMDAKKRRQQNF
Chain of Mitogen-activated protein kinase kinase kinase 20 (Q9NYL2 2-800 limits assumed): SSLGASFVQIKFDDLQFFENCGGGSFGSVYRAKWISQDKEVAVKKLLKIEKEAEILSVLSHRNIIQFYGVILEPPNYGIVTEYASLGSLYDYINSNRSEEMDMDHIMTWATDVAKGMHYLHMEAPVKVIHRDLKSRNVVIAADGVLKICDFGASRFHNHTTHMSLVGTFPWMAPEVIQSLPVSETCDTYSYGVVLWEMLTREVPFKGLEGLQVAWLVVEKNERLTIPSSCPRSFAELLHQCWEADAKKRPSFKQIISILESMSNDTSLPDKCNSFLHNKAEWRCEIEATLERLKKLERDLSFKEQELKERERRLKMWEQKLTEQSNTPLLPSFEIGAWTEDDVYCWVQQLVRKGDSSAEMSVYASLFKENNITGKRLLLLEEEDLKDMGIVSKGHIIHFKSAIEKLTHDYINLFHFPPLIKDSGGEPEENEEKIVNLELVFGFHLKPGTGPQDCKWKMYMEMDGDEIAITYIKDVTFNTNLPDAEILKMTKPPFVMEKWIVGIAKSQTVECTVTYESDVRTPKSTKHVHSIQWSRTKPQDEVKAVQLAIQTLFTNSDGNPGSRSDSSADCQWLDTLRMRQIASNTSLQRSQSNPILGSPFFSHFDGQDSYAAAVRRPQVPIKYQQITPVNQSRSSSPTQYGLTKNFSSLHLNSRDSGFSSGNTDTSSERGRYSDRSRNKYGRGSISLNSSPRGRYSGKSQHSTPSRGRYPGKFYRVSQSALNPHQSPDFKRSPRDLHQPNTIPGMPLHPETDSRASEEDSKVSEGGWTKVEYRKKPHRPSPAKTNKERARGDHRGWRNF
Chain of Ribosomal protein S6 kinase alpha-1 (Q15418 whole entry, the tested form may be a part): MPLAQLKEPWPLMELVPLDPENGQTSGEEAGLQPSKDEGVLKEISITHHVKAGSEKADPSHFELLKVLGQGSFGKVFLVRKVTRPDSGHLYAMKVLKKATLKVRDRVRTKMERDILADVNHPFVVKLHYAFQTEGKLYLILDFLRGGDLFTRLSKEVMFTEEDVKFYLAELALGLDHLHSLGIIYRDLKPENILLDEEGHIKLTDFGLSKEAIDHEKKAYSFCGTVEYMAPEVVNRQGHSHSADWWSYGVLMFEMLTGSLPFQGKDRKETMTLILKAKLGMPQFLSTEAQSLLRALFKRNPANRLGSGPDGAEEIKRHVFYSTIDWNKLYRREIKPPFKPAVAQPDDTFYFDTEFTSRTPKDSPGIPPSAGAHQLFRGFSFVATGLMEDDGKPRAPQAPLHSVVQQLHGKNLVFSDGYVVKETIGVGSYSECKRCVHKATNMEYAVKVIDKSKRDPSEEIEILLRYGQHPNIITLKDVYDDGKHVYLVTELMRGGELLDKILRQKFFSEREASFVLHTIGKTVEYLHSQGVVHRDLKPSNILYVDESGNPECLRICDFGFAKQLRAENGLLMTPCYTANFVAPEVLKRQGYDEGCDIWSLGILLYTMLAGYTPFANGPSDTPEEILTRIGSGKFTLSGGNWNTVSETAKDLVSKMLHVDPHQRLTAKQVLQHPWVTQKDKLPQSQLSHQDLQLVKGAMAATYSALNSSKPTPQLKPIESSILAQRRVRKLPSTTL
Chain of Dual specificity mitogen-activated protein kinase kinase 1 (Q02750 whole entry): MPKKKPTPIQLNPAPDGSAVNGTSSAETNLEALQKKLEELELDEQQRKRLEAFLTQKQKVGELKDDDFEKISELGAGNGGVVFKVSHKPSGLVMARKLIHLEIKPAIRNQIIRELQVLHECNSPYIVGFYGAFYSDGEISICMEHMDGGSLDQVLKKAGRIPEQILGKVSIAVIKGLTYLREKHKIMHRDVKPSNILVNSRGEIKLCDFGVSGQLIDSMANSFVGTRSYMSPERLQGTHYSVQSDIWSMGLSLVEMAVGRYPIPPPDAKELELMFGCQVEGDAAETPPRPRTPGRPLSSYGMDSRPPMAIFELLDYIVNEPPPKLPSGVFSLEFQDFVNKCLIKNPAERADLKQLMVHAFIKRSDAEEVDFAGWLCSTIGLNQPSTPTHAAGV

## CCOc1cc(N2CCC(O)CC2)ccc1Nc1ncc2c(n1)N(C)c1ccccc1C(=O)N2C
[1]
  IC50: 26 µM
[2]
  IC50: > 50 µM
[3]
  inhibition: -8.4%
[4]
  inhibition: 24.9%
[5]
  inhibition: 1.1%
[6]
  inhibition: 3.5%
[7]
  inhibition: 7.3%
[8]
  inhibition: -1.2%
[9]
  inhibition: 33.3%
[10]
  inhibition: -1.3%
[11]
  inhibition: -1.9%
[12]
  Activity: Non-Toxic
[13]
  Activity: 402 U/L
